# Assay results: US7935680B2, “Methods for modulating the axonal growth of central nervous system neurons” (Children's Medical Center Corporation, priority 1997, dated 2011)
# “Also recorded” adds a separate entry of the source.
# B1: ADA: exogenous adenosine deaminase enzyme (protein, UniProt P00813 2-363, looked up)
# Adenosine deaminase: AQTPAFDKPKVELHVHLDGSIKPETILYYGRRRGIALPANTAEGLLNVIGMDKPLTLPDFLAKFDYYMPAIAGCREAIKRIAYEFVEMKAKEGVVYVEVRYSPHLLANSKVEPIPWNQAEGDLTPDEVVALVGQGLQEGERDFGVKARSILCCMRHQPNWSPKVVELCKKYQQQTVVAIDLAGDETIPGSSLLPGHVQAYQEAVKSGIHRTVHAGEVGSAEVVKEAVDILKTERLGHGYHTLEDQALYNRLRQENMHFEICPWSSYLTGAWKPDTEHAVIRLKNDQANYSLNTDDPLIFKSTLDTDYQMTKRDMGFTEEEFKRLNINAAKSSFLPEDEKRELLDLLYKAYGMPPSASAGQNL
# Experiments:
# Type in all cases: cell-based
# [1] = system: goldfish retinal ganglion cells; experiment: Axonal outgrowth from dissociated goldfish retinal ganglion cell cultures; conditions: for EC50: goldfish RGCs, 6 days, estimated from dose-response curves; for Emax: read-out: maximal response relative to the level induced by AF-1; for outgrowth at higher concentrations: concentrations above those giving the maximal response; for axonal outgrowth activity: tested at concentrations between 1-100 μM; for dependence of outgrowth on cell density: fixed concentration (100 μM), 3-4-fold range of cell densities; for restoration of AF-1-induced growth in the presence of 10 μM 6-TG: inosine 100 μM
# Experimental: Axogenesis factor-1 was obtained essentially as described in Schwalb et al., 1995, and Schwalb et al., Neuroscience, 72: 901-910, 1996, the contents of which are incorporated herein by reference). Optic nerves were dissected, cut into fragments 1 mm in length, and incubated in a ratio of 6 nerves in 3 ml of either L-15 media (Gibco BRL) or phosphate-buffered saline (Gibco BRL). After 3-4 hours, nerve fragments were removed by filtering through a 0.22 μm pore low protein-binding filter (Gelman). A low molecular weight fraction of the conditioned media was prepared by ultrafiltration, first with a molecular weight cut-off of 3 kDa (Amicon Centriprep-3), then with a cut-off of 1 kDa (Filtron). The filtrate was used as a positive control at 20-30% final concentration. […] Goldfish (Comet Variety, Mt. Parnell Fisheries, Mt. Parnell Pa.), 6-10 cm in length, were dark-adapted and their retinas dissected. Retinas were incubated with papain (20 μg/ml), activated with cysteine (2.8 mM) for 30 minutes at room temperature, then dissociated by gentle trituration. […] Neuroscience 15: 5514-5625, 1995, the contents of which are incorporated herein by reference). […] Cells were maintained at 21° C. in serum free, defined media containing insulin, selenium, transferrin, bovine serum albumin, catalase, superoxide dismutase, hormones, and vitamins in Eagle's L-15 media as described in Schwalb et al., 1995, the contents of which are incorporated herein by reference). Dissociated cultures of purified rat retinal ganglion cells were prepared by immunopanning as described in Barres et al., Neuron, 1: 791-803, 1988, the contents of which are incorporated herein by reference). In brief, retinas from postnatal day 8 Sparague-Dawley rats were dissociated using papain activated with cysteine. Macrophages were removed by incubation with an anti-rat macrophage antibody (Accurate) followed by immunopanning with an anti-rabbit 1gG antibody. Ganglion cells were isolated by immunopanning with an anti-Thy-1 antibody, then dislodged with trypsin for use in low-density cultures. Rat retinal ganglion cells were maintained at 37° C. in a CO2 incubator using the same medium described above except for the presence of 30 mM bicarbonate. In a typical experiment, samples were plated in quadruplicate in randomized positions of a 24-well plate and the code was concealed to ensure that growth was evaluated in a blinded fashion. Each experiment contained 4 wells of a negative control (media plus supplements only) and 4 wells of a positive control (a standardized AF-1 sample of known activity). […] After the completion of counting, the code was broken, the data tabulated, and means and standard errors were calculated for the 4 replicate wells of each sample using Cricket Graph (CA Associates, […].). […] Group comparisons were based upon pairwise, 2-tailed Student's t-tests. Several independent experiments were performed for most samples, as noted in the figure legends. […] Cell survival is reported as the number of viable RGCs per high-powered field.
# [2] = system: goldfish retinal ganglion cells; experiment: Cell survival in goldfish retinal ganglion cell cultures (viable RGCs per field)
# Experimental: Goldfish (Comet Variety, Mt. Parnell Fisheries, Mt. Parnell Pa.), 6-10 cm in length, were dark-adapted and their retinas dissected. Retinas were incubated with papain (20 μg/ml), activated with cysteine (2.8 mM) for 30 minutes at room temperature, then dissociated by gentle trituration. […] Low density cultures were achieved by plating c. 5×10^3 cells/well into poly L-lysine coated, 24-well culture dishes (Costar, Cambridge, Mass.). […] In brief, retinas from postnatal day 8 Sparague-Dawley rats were dissociated using papain activated with cysteine. Macrophages were removed by incubation with an anti-rat macrophage antibody (Accurate) followed by immunopanning with an anti-rabbit 1gG antibody. Ganglion cells were isolated by immunopanning with an anti-Thy-1 antibody, then dislodged with trypsin for use in low-density cultures. Rat retinal ganglion cells were maintained at 37° C. in a CO2 incubator using the same medium described above except for the presence of 30 mM bicarbonate.
# In a typical experiment, samples were plated in quadruplicate in randomized positions of a 24-well plate and the code was concealed to ensure that growth was evaluated in a blinded fashion. Each experiment contained 4 wells of a negative control (media plus supplements only) and 4 wells of a positive control (a standardized AF-1 sample of known activity). Growth and survival were assessed after 6 days for all ganglion cells in 25 consecutive fields of each well using phase contrast microscopy at 400× magnification (c. 150 ganglion cells counted per well). […] After the completion of counting, the code was broken, the data tabulated, and means and standard errors were calculated for the 4 replicate wells of each sample using Cricket Graph (CA Associates, Islandia, N.Y.). Data were normalized by subtracting the growth in the negative controls (usually 4-5%) and dividing by the net growth in the positive controls. […] Group comparisons were based upon pairwise, 2-tailed Student's t-tests. Several independent experiments were performed for most samples, as noted in the figure legends. In some cases, cell viability was assessed with the dye 5,6-carboxyfluorescein diacetate. Cell survival is reported as the number of viable RGCs per high-powered field.
# [3] = system: GAP-43; experiment: GAP-43 immunohistochemistry in goldfish retinal ganglion cells; conditions: for GAP-43 levels relative to L-15 treated controls: immunostaining
# Experimental: One hallmark of optic nerve regeneration in vivo is the enhanced expression of the membrane phosphoprotein GAP-43. To investigate whether this upregulation is induced by purines, immunohistochemistry was carried out using a polyclonal rabbit antiserum against recombinant […] GAP-43. Recombinant zebrafish GAP-43 was made by transforming E. coli with a cDNA isolated by Dr. Eva Reinhard, University of Basel, Switzerland (see Reinhard et al., Development, 120: 1757-1775, 1994, the contents of which are incorporated herein by reference) subcloned into the prokaryotic expression vector pTrcHisB (Invitrogen). The protein produced was purified by Ni^2+-NTA-affinity chromatography and used to immunize rabbits. […] Inosine produced a 5.5-fold increase in the number of intensely stained cells over L-15, whereas AF-1 produced a 8-fold increase. In all 3 cases, the intensity of GAP-43 immunostaining correlated strongly with axonal length.
# [4] = system: rat retinal ganglion cells; experiment: Axonal outgrowth from purified rat retinal ganglion cells; conditions: rat RGCs
# Experimental: Goldfish (Comet Variety, Mt. Parnell Fisheries, Mt. Parnell Pa.), 6-10 cm in length, were dark-adapted and their retinas dissected. Retinas were incubated with papain (20 μg/ml), activated with cysteine (2.8 mM) for 30 minutes at room temperature, then dissociated by gentle trituration. Repeated cycles of trituration and sedimentation yielded cultures nearly homogeneous in ganglion cells, which are readily identified by their oval shape, phase-bright appearance, size (diameter 15 μm), and extension of only 1 or 2 neurites of uniform caliber; these criteria have been verified by retrograde labeling (see Schwartz & Agranoff, Brain Res. 206: 331-343, 1981 and Schwalb et al., J. Neuroscience 15: 5514-5625, 1995, the contents of which are incorporated herein by reference). Low density cultures were achieved by plating c. 5×10^3 cells/well into poly L-lysine coated, 24-well culture dishes (Costar, Cambridge, Mass.). Cells were maintained at 21° C. in serum free, defined media containing insulin, selenium, transferrin, bovine serum albumin, catalase, superoxide dismutase, hormones, and vitamins in Eagle's L-15 media as described in Schwalb et al., 1995, the contents of which are incorporated herein by reference). Dissociated cultures of purified rat retinal ganglion cells were prepared by immunopanning as described in Barres et al., Neuron, 1: 791-803, 1988, the contents of which are incorporated herein by reference). In brief, retinas from postnatal day 8 Sparague-Dawley rats were dissociated using papain activated with cysteine. Macrophages were removed by incubation with an anti-rat macrophage antibody (Accurate) followed by immunopanning with an anti-rabbit 1gG antibody. Ganglion cells were isolated by immunopanning with an anti-Thy-1 antibody, then dislodged with trypsin for use in low-density cultures. Rat retinal ganglion cells were maintained at 37° C. in a CO2 incubator using the same medium described above except for the presence of 30 mM bicarbonate.
# In a typical experiment, samples were plated in quadruplicate in randomized positions of a 24-well plate and the code was concealed to ensure that growth was evaluated in a blinded fashion. Each experiment contained 4 wells of a negative control (media plus supplements only) and 4 wells of a positive control (a standardized AF-1 sample of known activity). Growth and survival were assessed after 6 days for all ganglion cells in 25 consecutive fields of each well using phase contrast microscopy at 400× magnification (c. 150 ganglion cells counted per well). Extension of a process 5 cell diameters in length was the criterion for growth, since it clearly distinguishes stimulated cells from negative controls (see Schwalb et al., 1995). After the completion of counting, the code was broken, the data tabulated, and means and standard errors were calculated for the 4 replicate wells of each sample using Cricket Graph (CA Associates, Islandia, N.Y.). Data were normalized by subtracting the growth in the negative controls (usually 4-5%) and dividing by the net growth in the positive controls. In the most favorable experiments, more than 50% of retinal ganglion cells (RGCs) exposed to AF-1 extended axons 5 cell diameters in length after 6 days. Group comparisons were based upon pairwise, 2-tailed Student's t-tests. Several independent experiments were performed for most samples, as noted in the figure legends. In some cases, cell viability was assessed with the dye 5,6-carboxyfluorescein diacetate. […]
# [5] = Carassius auratus, normalized to AF-1 positive control, adenosine 50-100 μM, guanosine 100 μM, inosine above 25 or 50 μM
Molecule,outgrowth when adenosine hydrolysis is blocked ([1]; 100 μM adenosine in the presence of 10 μM DCF),"EC50 ([1]; Carassius auratus, 144 h)","Emax [1, 5]",outgrowth at higher concentrations [1],axonal outgrowth activity [1],cell survival when ADA is blocked with DCF [2],dependence of outgrowth on cell density [1],EC50 [1],"maximal response relative to the level induced by AF-1 ([1]; normalized to AF-1 positive control, adenosine 50-100 μM, guanosine 100 μM, inosine above 25 or 50 μM)",GAP-43 levels relative to L-15 treated controls [3],restoration of AF-1-induced growth in the presence of 10 μM 6-TG [1],restoration of AF-1-induced growth in the presence of 10 μM 6-TG ([1]; listed as Inosine),combined effect with AF-1 ([1]; inosine and AF-1 at saturating / higher concentrations),combined effect with AF-1 ([1]; inosine and AF-1 each at EC50 (half-maximal) levels),"increase in the number of intensely stained cells over L-15 ([3]; GAP-43 immunoreactivity score 2 (intense), 150-200 cells)",restoration of CNTF stimulated growth in the presence of 10 μM 6-TG ([4]; inosine 25 μM),restoration of CNTF-induced outgrowth in the presence of 10 μM 6-TG ([4]; inosine 50 μM),increase in the number of cells extending axons 5 cell diameters in length ([4]; inosine at 25 or 50 μM),effect on outgrowth stimulated by 100 μM adenosine ([1]; exogenous ADA 0.4 U/ml),effect on cell survival ([2]; exogenous ADA 0.4 U/ml with 100 μM adenosine)
Nc1ncnc2c1ncn2[C@@H]1O[C@H](CO)[C@@H](O)[C@H]1O [adenosine],"suppress growth; also recorded: failed to stimulate growth, but caused it to decline below baseline levels",10 to 15 µM,60%,outgrowth decreased,stimulated almost as much outgrowth from goldfish retinal ganglion cells as AF-1,"causes adenosine to suppress growth (e, top) and survival",–,–,–,–,–,–,–,–,–,–,–,–,–,–
Nc1nc2c(ncn2[C@@H]2O[C@H](CO)[C@@H](O)[C@H]2O)c(=O)[nH]1 [guanosine],–,20 to 30 µM,–,no obvious decrease in activity,stimulated almost as much outgrowth from goldfish retinal ganglion cells as AF-1,–,growth is not a function of cell density; also recorded: independent of cell density,25 µM,same maximal level of activity as adenosine,large increase in GAP-43 levels,–,–,–,–,–,–,–,–,–,–
OC[C@H]1O[C@@H](n2cnc3c(O)ncnc32)[C@H](O)[C@@H]1O [inosine],–,10 to 15 µM,~60%,did not cause growth to decline,–,–,growth is not a function of cell density; also recorded: independent of cell density,–,–,large increase in GAP-43 levels,fully restored the growth induced by AF-1,restored all of the growth induced by AF-1,growth saturates at the level stimulated by high AF-1 levels alone; also recorded: growth reached a plateau level,additive effects,5.5 fold,fully restored,restored CNTF-induced outgrowth nearly to its original level,50%,–,–
B1,–,–,–,–,–,–,–,–,–,–,–,–,–,–,–,–,–,–,unaltered; also recorded: did not diminish axon outgrowth,did not diminish axon outgrowth stimulated by 100 μM adenosine or affect cell survival
